According to patent US9834558B2, “Substituted bridged urea analogs as sirtuin modulators” (GLAXOSMITHKLINE LLC, priority 2013, dated 2017):
Where a name gives a salt, the structure may show the parent alone. Read-outs that look alike come from different tables or passages of the source.

Target: T1, SIRT1 (Homo sapiens, UniProt Q96EB6)
T1 sequence (Q96EB6 1-747): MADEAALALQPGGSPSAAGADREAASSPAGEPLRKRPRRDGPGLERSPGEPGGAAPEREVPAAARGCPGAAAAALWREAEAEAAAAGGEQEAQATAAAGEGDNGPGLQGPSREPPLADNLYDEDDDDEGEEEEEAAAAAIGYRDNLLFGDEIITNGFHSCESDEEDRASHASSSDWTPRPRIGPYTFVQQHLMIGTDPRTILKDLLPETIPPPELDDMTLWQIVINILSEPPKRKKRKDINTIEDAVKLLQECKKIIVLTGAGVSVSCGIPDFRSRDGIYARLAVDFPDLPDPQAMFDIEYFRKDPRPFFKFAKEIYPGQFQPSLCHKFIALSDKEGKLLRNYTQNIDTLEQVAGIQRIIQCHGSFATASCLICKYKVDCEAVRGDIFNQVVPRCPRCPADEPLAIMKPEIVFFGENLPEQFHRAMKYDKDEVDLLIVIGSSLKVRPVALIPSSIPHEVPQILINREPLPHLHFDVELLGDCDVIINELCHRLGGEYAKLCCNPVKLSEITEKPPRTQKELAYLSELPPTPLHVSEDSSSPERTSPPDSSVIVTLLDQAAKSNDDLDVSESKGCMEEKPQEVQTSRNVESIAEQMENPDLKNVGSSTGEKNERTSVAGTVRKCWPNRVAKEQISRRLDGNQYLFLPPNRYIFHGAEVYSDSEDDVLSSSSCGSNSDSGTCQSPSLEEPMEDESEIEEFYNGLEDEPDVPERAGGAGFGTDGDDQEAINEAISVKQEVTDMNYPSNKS
Test: Trp mass spectrometry assay of SIRT1 activation
Type: biochemical
Settings: for TRP Activity (EC1.5): EC1.5 = concentration that results in 150% activation of SIRT1
In short: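 N-terminal His-tagged human SIRT1 (10 nM, E. coli BL21(DE3)) with 0.5 μM Ac-RHKK(Ac)W-NH2 peptide and 120 μM βNAD+, 25 min at 25 °C in HEPES pH 7.5, formic acid stop. OAADPR or deacetylated peptide quantified by mass spectrometry; EC1.5 (50% activity increase over control) and Percent Maximum Activation reported.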

[1] = Trp peptide assay, maximum activity relative to control (100%), read-out: TRP MAX RESP (percent maximum fold activation)
[2] = Trp mass spectrometry assay, EC1.5 = concentration of test compound that results in 150% activation of SIRT1
[3] = Trp peptide substrate, concentration giving 150% activation of SIRT1
[4] = concentration giving 150% activation of SIRT1, Trp peptide substrate
[5] = Trp mass spectrometry assay, concentration of test compound giving 150% activation of SIRT1

TRP Activity (EC1.5) (Trp peptide assay) | Emax [1] [%] | Structure (SMILES) | also measured
C (C (EC1.5>25 μM)) | < 150 | Cc1cc(-c2ccc3c(n2)N(C(=O)NCCc2cccnc2)[C@H]2CCN3C2)ccn1 [(9S)-5-(2-methylpyridin-4-yl)-N-[2-(pyridin-3-yl)ethyl]-1,6,8-triazatricyclo[7.2.1.0 {2,7}]dodeca-2(7),3,5-triene-8-carboxamide hydrochloride] | –
– | – | O=C(Nc1cccc(-c2cnco2)n1)N1c2nc(-c3cccc(C(F)(F)F)c3)ccc2N2CCC[C@H]1C2 [Example 590] | Tryp AVG EC1.5 (μM) [2]: A (A (EC1.5<1 μM))
C (C (EC1.5>25 μM)) | < 150 | N#Cc1ccc(-c2ccc3c(n2)N(C(=O)Nc2cnccn2)[C@H]2CCN3C2)cn1 [(9S)-5-(6-cyanopyridin-3-yl)-N-(pyrazin-2-yl)-1,6,8-triazatricyclo[7.2.1.0 {2,7}]dodeca-2,4,6-triene-8-carboxamide] | –
– | – | O=C1OCc2ccc(NC(=O)N3c4nc(-c5cccc(C(F)(F)F)c5)ccc4N4CC[C@H]3C4)cc21 [Example 93] | Tryp AVG EC1.5 (μM) [3]: A (A (EC1.5<1 μM))
– | – | O=C(Nc1cccc(-c2cnco2)c1)N1c2nc(-c3cccc(C(F)(F)F)c3)ccc2N2CCC1CC2 [Example 473] | Tryp AVG EC1.5 (μM) [2]: A (A (EC1.5<1 μM))
– | – | O=C(Nc1cccc(-c2cnco2)c1)N1c2nc(N3CCC[C@H](C(F)(F)F)C3)ccc2N2CC[C@H]1C2 [Example 718] | Tryp AVG EC1.5 (μM) [4]: A (A (EC1.5<1 μM))
– | – | O=C(Nc1cc(F)ccn1)N1c2nc(-c3cccc(C(F)(F)F)c3)ccc2N2CCC1CC2 [Example 492] | Tryp AVG EC1.5 (μM) [2]: A (A (EC1.5<1 μM)); Emax (Trp mass spectrometry assay, percent maximum fold activation of SIRT1, read-out: Tryp % Fold Act): > 150%
A (A (EC1.5<1 μM)) | > 150 | Cc1cc(-c2ccc3c(n2)N(C(=O)Nc2cnccn2)[C@H]2CCN3C2)cc(C(F)(F)F)n1 [(9S)-5-[2-methyl-6-(trifluoromethyl)pyridin-4-yl]-N-(pyrazin-2-yl)-1,6,8-triazatricyclo[7.2.1.0 {2,7}]dodeca-2(7),3,5-triene-8-carboxamide] | –
B (B (EC1.5 1-25 μM)) | > 150 | CCc1cnc(NC(=O)N2c3nc(-c4ccc(C)nc4)ccc3N3CC[C@H]2C3)cn1 [(9S)-N-(5-ethylpyrazin-2-yl)-5-(6-methylpyridin-3-yl)-1,6,8-triazatricyclo[7.2.1.0^{2,7}]dodeca-2,4,6-triene-8-carboxamide] | –
– | – | O=C(Nc1cnccn1)N1c2nc(-c3cccc(Cl)c3)ccc2N2CC[C@H]1C2 [Example 101] | Tryp AVG EC1.5 (μM) [3]: A (A (EC1.5<1 μM))
– | – | N#Cc1cccc(-c2ccc3c(n2)N(C(=O)Nc2cncc(F)c2)[C@H]2CCCN3C2)c1 [Example 353] | Tryp AVG EC1.5 (μM) [5]: A (A (EC1.5<1 μM))
C (C (EC1.5>25 μM)) | < 150 | Cc1cc(-c2ccc3c(n2)N(C(=O)Nc2ncnc4[nH]nnc24)[C@H]2CCN3C2)ccn1 [(9S)-5-(2-methylpyridin-4-yl)-N-{3H-[1,2,3]triazolo[4,5-d]pyrimidin-7-yl}-1,6,8-triazatricyclo[7.2.1.0^{2,7}]dodeca-2,4,6-triene-8-carboxamide] | –
– | – | O=C(Nc1nnc(C(F)(F)F)s1)N1c2nc(-c3cccc(C(F)(F)F)c3)ccc2N2CC[C@H]1C2 [Example 650] | Tryp AVG EC1.5 (μM) [4]: C (C (EC1.5>25 μM))
– | – | COc1cc(NC(=O)N2c3nc(-c4cccc(C(F)(F)F)c4)ccc3N3C[C@@H](O)[C@H]2C3)ncn1 [Example 644] | Tryp AVG EC1.5 (μM) [4]: B (B (EC1.5 1-25 μM))
– | – | O=C(Nc1cccnc1)N1c2nc(-c3cncc(C(F)(F)F)c3)ccc2N2CC[C@H]1C2 [Example 392] | Tryp AVG EC1.5 (μM) [5]: A (A (EC1.5<1 μM))
C (C (EC1.5>25 μM)) | < 150 | Cc1cc(-c2ccc3c(n2)N(C(=O)N2CCCCC2)[C@H]2CCN3C2)ccn1 [(9S)-5-(2-methylpyridin-4-yl)-8-[(piperidin-1-yl)carbonyl]-1,6,8-triazatricyclo[7.2.1.0 {2,7}]dodeca-2,4,6-triene] | –
– | – | O=C(Nc1cncc(F)c1)N1c2nc(-c3ccnc(N4CC[C@@H](F)C4)c3)ccc2N2CC[C@H]1C2 [Example 464] | Tryp AVG EC1.5 (μM) [2]: B (B (EC1.5 1-25 μM))
